Experimental data from publication PMC10649752, “Design and Synthesis of Novel Chalcone Derivatives: Anti-Breast Cancer Activity Evaluation and Docking Study” (International Journal of Molecular Sciences, 2023).
Entries after “also recorded” stand apart in the source; their conditions may differ.

Columns and labels:
Assay type in all cases: cell-based
MCF-7 cells [1] = assay: CCK-8 antiproliferative activity on MCF-7 cells
Procedure: (§1) DMEM high glucose medium and fetal calf serum were obtained from Gibco (New York, NY, USA), and cell counting Kit-8 solution was purchased from Meilunbio (Dalian, China). Paraformaldehyde and Crystal Violet were purchased from Biosharp (Hefei, China). The MCF-7 and L-02 cell lines were purchased from the Shanghai Institute of Biochemistry (Shanghai, China) All the target compounds and 5-fluorouracil (5-Fu) were dissolved with DMSO at a concentration of 20 mM. Cell culture medium was a mixture of DMEM medium, 10% fetal bovine serum, and 1% penicillin–streptomycin solution stored at […]. The cells were grown at 37 °C under 5% CO2.
(§2) Cells were seeded into 96 well plates with 4000 cells/well using DMEM solution and incubated in a humid atmosphere containing 5% CO2 at 37 °C for 24 h. Compounds with different concentrations (200 μM, 100 μM, 50 μM, 25 μM, 12.5 μM, 6.25 μM, 3.125 μM, 1.5625 μM) were added to the culture medium for 24 h. After that, CCK-8 reagent (10 μL) was added under dark conditions and incubated the plate in a CO2 incubator at 37 °C for 2 h. After incubation, the absorbance was measured using an enzyme-linked immunosorbent assay at a wavelength of 450 nm. Cell survival rate was calculated as a percentage of the control group.
(§3) By using Graph Pad Prism 8.0 software, the concentration that inhibits 50% of maximum cell proliferation was determined to be IC50 value.

[2] = test system: human normal hepatocyte L-O2; assay: CCK-8 cytotoxicity against normal hepatocyte L-O2 cells; conditions: for IC50: human normal hepatocyte L-O2, CCK-8, 24 h
Procedure: We have selected compounds A7, A8, A9, and A14 with relatively low IC50 values, which are considered to have more potential and are more meaningful for further research. The toxic effects of compounds A7, A8, A9, and A14 on normal hepatocytes cells L-O2 were assessed in this work to examine the selective toxicity of the new compounds on cancer cells without harming normal cells. The selectivity index was calculated as a ratio of L-02 IC50/MCF-7 IC50 for these four compounds. […] Therefore, A8 and A14 were chosen as representative medications for future research after thorough evaluation.
as §1, §2, §3

MCF-7 cells [3] = assay: Migration ability assay (wound healing / scratch); conditions: various concentrations, 24 h and 48 h, vs control group
Procedure: An obvious feature of breast cancer cells is their strong migration ability. In order to study the inhibitory effect of compounds on breast cancer cells migration, the scratch distances of compounds A8 and A14 on MCF-7 cells at different concentrations were measured by wound healing experiments. […] Moreover, under similar concentrations, the inhibitory migration effect of the target compound on MCF-7 is more excellent than that of the control drug 5-Fu.
MCF-7 cells were seeded into six-well plates at a density of 3000 cells/well and growing for 24 h. Scratches were made in confluent monolayers with 200 μL pipette tip. After that, each well was washed with PBS buffer 3 times to remove non-adherent cell debris. MCF-7 cells were continually incubated with different concentrations of compounds or positive control for 24 or 48 h. The area of cells migrated across the wound was photographed using phase contrast microscopy at 0 h, 24 h, and 48 h. The migration distance of cells into the wound area was measured by ImageJ2 software at room temperature.

MCF-7 cells [4] = assay: Cell colony formation assay; conditions: 7 days treatment, drug concentrations greater than 8 µmol/L, vs blank control
Procedure: MCF-7 cells were seeded into six-well plates at a density of 1000 cells/well and cultivated for 24 h. After that, the cells were continually incubated with different concentrations of compounds and positive control for 7 days. Each well was carefully rinsed three times with PBS buffer quickly at room temperature. Collected cells were fixed for 1 h at room temperature by adding 2 mL of 4% paraformaldehyde solution. The results were analyzed using the ImageJ software.

Row | IC50 (MCF-7 cells [1]; Homo sapiens, MCF7, CCK-8, 24 h treatment) [µM] | IC50 (MCF-7 cells [1]; CCK-8, 24 h treatment) [µM] | Compound | IC50 [2] [µM] | Selectivity Index (SI) ([2]; ratio L-02 IC50/MCF-7 IC50) | Inhibition of MCF-7 cell migration (scratch distance) (MCF-7 cells [3]) | Colony formation of MCF-7 cells (MCF-7 cells [4])
1 | 169 | – | O=c1[nH]cc(F)c(=O)[nH]1 [Compound 5-Fu, 5-fluorouracil, reference compound] | 200 | 1.18 | – | –
2 | – | 19.1 | COc1cc(C(=O)/C=C/c2ccc(C(=O)NCc3cccs3)cc2)cc(OC)c1OC [Compound A7, (E)-4-(3-oxo-3-(3,4,5-trimethoxyphenyl)prop-1-en-1-yl)-N-(thiophen-2-ylmethyl) benzamide] | – | – | – | –
3 | – | – | COc1cc(C(=O)/C=C/c2ccc(C(=O)OCCCSc3ccncc3)cc2)cc(OC)c1OC [Compound A14, 3-(pyridin-4-ylthio) propyl (E)-4-(3-oxo-3-(3,4,5-trimethoxyphenyl)prop-1-en-1-yl) benzoate] | 41.2 | – | inhibited MCF-7 cell migration; also recorded: effectively inhibited the migration of MCF-7 cells in a dose-dependent manner | significantly reduced
4 | – | 19.6 | COc1cc(C(=O)/C=C/c2ccc(C(=O)NCC3CC3)cc2)cc(OC)c1OC [Compound A9, (E)-N-(cyclopropylmethyl)-4-(3-oxo-3-(3,4,5-trimethoxyphenyl)prop-1-en-1-yl) benzamide] | 35.3 | – | – | –

Row | Compound | IC50 (MCF-7 cells [1]; Homo sapiens, MCF7, CCK-8, 24 h treatment) [µM] | IC50 (MCF-7 cells [1]; CCK-8, 24 h treatment) [µM] | IC50 [2] [µM] | Selectivity Index (SI) ([2]; ratio L-02 IC50/MCF-7 IC50) | Inhibition of MCF-7 cell migration (scratch distance) (MCF-7 cells [3]) | Colony formation of MCF-7 cells (MCF-7 cells [4])
5 | COc1cc(C(=O)/C=C/c2ccc(C(=O)NCC3CCOC3)cc2)cc(OC)c1OC (stereo not drawn) [Compound A8, (E)-4-(3-oxo-3-(3,4,5-trimethoxyphenyl)prop-1-en-1-yl)-N-((tetrahydrofuran-3-yl)methyl) benzamide] | – | 16.7 | 47.2 | – | inhibited MCF-7 cell migration; also recorded: effectively inhibited the migration of MCF-7 cells in a dose-dependent manner | –
